Results as given in PMC10584882 (Communications Biology, 2023).
Several values for one entry are separate records, joined by “and”; a condition that tells them apart may be missing. Equal entries are not always repeated. Entries after “also recorded” stand apart in the source; their conditions may differ.

Columns and labels:
[1] = S-Calpeptin toxicity experiment in Golden Syrian hamsters (weight, blood cell count, histopathology); format: in vivo, Golden Syrian hamsters (Mesocricetus auratus); design: leukocytes / neutrophils / lymphocytes / monocytes: unit not given here; conditions: for leukocytes / lymphocytes / monocytes / neutrophils: blood cell count
[2] = Anti-viral experiment with Golden Syrian hamsters: body weight; format: in vivo, Golden Syrian hamsters (Mesocricetus auratus); conditions: for body weight, individual data: individual animals
[3] = 1 mg/kg S-Calpeptin, individual animals 1-3, 1 mg/kg
[4] = 2 mg/kg S-Calpeptin, individual animals 7-9, 2 mg/kg
[5] = 3 mg/kg S-Calpeptin, individual animals 10-12, 3 mg/kg

In the case of CCCC[C@H](NC(=O)[C@H](CC(C)C)NC(=O)OCc1ccccc1)C(O)S(=O)(=O)[O-].[Na+] (stereo partly shown) [S-Calpeptin], the “body weight, summarized data, average” value ([1]; 1 mg/kg S-Calpeptin, day 0, relative to day 0) is reported as 100%, the “body weight, summarized data, average” value ([1]; 1 mg/kg S-Calpeptin, day 1, relative to day 0) is reported as 100.862% and the “body weight, individual data” value ([1]; 1 mg/kg S-Calpeptin, day 2, individual animals A1-A3) is reported as 124 g. For the same compound, the “body weight, summarized data, average” value ([1]; 1 mg/kg S-Calpeptin, day 2, relative to day 0) was 100.893%, the “body weight, summarized data, average” value ([1]; 1 mg/kg S-Calpeptin, day 3, relative to day 0) was 100.862% and the “body weight, summarized data, average” value ([1]; 1 mg/kg S-Calpeptin, day 4, relative to day 0) was 101.724%. The “body weight, summarized data, average” value ([1]; 1 mg/kg S-Calpeptin, day 5, relative to day 0) was 102.852%, the “body weight, summarized data, average” value ([1]; 1 mg/kg S-Calpeptin, day 6, relative to day 0) was 102.288% and the “body weight, summarized data, average” value ([1]; 2 mg/kg S-Calpeptin, day 0, relative to day 0) was 100%. For the same compound, the “body weight, summarized data, average” value ([1]; 2 mg/kg S-Calpeptin, day 1, relative to day 0) was 100.285%, the “body weight, summarized data, average” value ([1]; 2 mg/kg S-Calpeptin, day 2, relative to day 0) was 100.287% and the “body weight, individual data” value ([1]; 2 mg/kg S-Calpeptin, day 3, individual animals A7-A9) was 120 g. For the same compound, the “body weight, summarized data, average” value ([1]; 2 mg/kg S-Calpeptin, day 3, relative to day 0) was 101.388%, the “body weight, summarized data, average” value ([1]; 2 mg/kg S-Calpeptin, day 4, relative to day 0) was 100.836% and the “body weight, summarized data, average” value ([1]; 2 mg/kg S-Calpeptin, day 5, relative to day 0) was 101.368%. The “body weight, individual data” value ([1]; 2 mg/kg S-Calpeptin, day 6, individual animals A7-A9) was 120 g, the “body weight, summarized data, average” value ([1]; 2 mg/kg S-Calpeptin, day 6, relative to day 0) was 101.919% and the “body weight, individual data” value ([1]; 3 mg/kg S-Calpeptin, day 0, individual animals A10-A12) was 124 g and 135 g. The “body weight, summarized data, average” value ([1]; 3 mg/kg S-Calpeptin, day 0, relative to day 0) was 100%, the “body weight, individual data” value ([1]; 3 mg/kg S-Calpeptin, day 1, individual animals A10-A12) was 124 g and 135 g and the “body weight, summarized data, average” value ([1]; 3 mg/kg S-Calpeptin, day 1, relative to day 0) was 100.275%. For the same compound, the “body weight, individual data” value ([1]; 3 mg/kg S-Calpeptin, day 2, individual animals A10-A12) was 124 g and 135 g, the “body weight, summarized data, average” value ([1]; 3 mg/kg S-Calpeptin, day 2, relative to day 0) was 100.275% and the “body weight, summarized data, average” value ([1]; 3 mg/kg S-Calpeptin, day 3, relative to day 0) was 101.582%. The “body weight, summarized data, average” value ([1]; 3 mg/kg S-Calpeptin, day 4, relative to day 0) was 102.133%, the “body weight, summarized data, average” value ([1]; 3 mg/kg S-Calpeptin, day 5, relative to day 0) was 102.402% and the “body weight, summarized data, average” value ([1]; 3 mg/kg S-Calpeptin, day 6, relative to day 0) was 102.671%. The leukocytes [1, 3] was 4150 and 4010 and 4200, the lymphocytes [1, 3] was 2407 and 2366 and 2310 and the monocytes [1, 3] was 581 and 521 and 798. The neutrophils [1, 3] was 1079 and 1083 and 924, the leukocytes [1, 4] was 1780 and 2200 and 1620 and the lymphocytes [1, 4] was 1104 and 748 and 486. The monocytes [1, 4] was 214 and 352 and 680, the neutrophils [1, 4] was 427 and 1056 and 389 and the leukocytes [1, 5] was 3000 and 1360 and 2190. For the same compound, the lymphocytes [1, 5] was 1860 and 653 and 1270, the monocytes [1, 5] was 450 and 163 and 350 and the neutrophils [1, 5] was 630 and 517 and 569. For the same compound, the “blood cell count finding (in words)” value ([1]; hamsters, 2 mg/kg or 3 mg/kg s.c. daily, end of seven-days protocol) was “marked leukopenia; also recorded: blood leukopenia”, the “acute toxicity-related clinical signs or weight loss (in words)” value ([1]; hamsters, 1, 2 or 3 mg/kg s.c. daily) was “no signs of acute toxicity; also recorded: did not display acute toxicity-related clinical signs” and the “side effects (in words)” value ([1]; hamsters, daily dose of 1 mg/kg s.c. over seven days) was “no apparent side effects”. The “body weight, individual data” value ([2]; G1 SARS-CoV-2 infected, 1 mg/kg s.c. daily, Day 1, 1 mg/kg) was 142 g and 136 g and 131 g and 130 g and 132 g and 133 g and 125 g and 128 g and 123 g and 114 g and 117 g and 111 g, the “body weight, individual data” value ([2]; G1 SARS-CoV-2 infected, 1 mg/kg s.c. daily, Day 2, 1 mg/kg) was 139 g and 141 g and 136 g and 131 g and 128 g and 132 g and 123 g and 127 g and 120 g and 111 g and 116 g and 108 g and the “body weight, individual data” value ([2]; G1 SARS-CoV-2 infected, 1 mg/kg s.c. daily, Day 3, 1 mg/kg) was 138 g and 133 g and 132 g and 125 g and 128 g and 131 g and 123 g and 122 g and 126 g and 118 g and 121 g and 111 g and 115 g and 106 g. The “body weight, individual data” value ([2]; G1 SARS-CoV-2 infected, 1 mg/kg s.c. daily, Day 4, 1 mg/kg) was 126 g and 130 g and 121 g and 120 g and 118 g and 123 g and 111 g and 116 g and 104 g, the “body weight, individual data” value ([2]; G1 SARS-CoV-2 infected, 1 mg/kg s.c. daily, Day 5, 1 mg/kg) was 126 g and 129 g and 121 g and 119 g and 118 g and 111 g and 117 g and 104 g and the “body weight, individual data” value ([2]; G1 SARS-CoV-2 infected, 1 mg/kg s.c. daily, Day 6, 1 mg/kg) was 115 g and 118 g and 111 g and 116 g and 105 g. For the same compound, the “body weight, individual data” value ([2]; G1 SARS-CoV-2 infected, 1 mg/kg s.c. daily, Day 7, 1 mg/kg) was 117 g and 121 g and 112 g and 118 g and 106 g, the “body weight, individual data” value ([2]; G4 mock infected (so in the source), Day 1) was 155 g and 138 g and 130 g and the “body weight, individual data” value ([2]; G4 mock infected (so in the source), Day 2) was 156 g and 137 g and 130 g. The “body weight, individual data” value ([2]; G4 mock infected (so in the source), Day 3) was 157 g and 138 g and 131 g, the “body weight, individual data” value ([2]; G4 mock infected (so in the source), Day 4) was 158 g and 140 g and 130 g and the “body weight, individual data” value ([2]; G4 mock infected (so in the source), Day 5) was 159 g and 139 g and 131 g. For the same compound, the “body weight, individual data” value ([2]; G4 mock infected (so in the source), Day 6) was 160 g and 139 g and 130 g, the “body weight, individual data” value ([2]; G4 mock infected (so in the source), Day 7) was 162 g and 141 g and 131 g and the “body weight, average” value ([2]; SARS-CoV-2 infected hamsters, 1 mg/kg s.c. daily, day 1) was 96.7382 %, relative to day 0. The “body weight, average” value ([2]; SARS-CoV-2 infected hamsters, 1 mg/kg s.c. daily, day 2) was 95.2969 %, relative to day 0, the “body weight, average” value ([2]; SARS-CoV-2 infected hamsters, 1 mg/kg s.c. daily, day 3) was 94.3407 %, relative to day 0 and the “body weight, average” value ([2]; SARS-CoV-2 infected hamsters, 1 mg/kg s.c. daily, day 4) was 93.4383 %, relative to day 0. For the same compound, the “body weight, average” value ([2]; SARS-CoV-2 infected hamsters, 1 mg/kg s.c. daily, day 5) was 93.2155 %, relative to day 0, the “body weight, average” value ([2]; SARS-CoV-2 infected hamsters, 1 mg/kg s.c. daily, day 6) was 93.1372 %, relative to day 0 and the “body weight, average” value ([2]; SARS-CoV-2 infected hamsters, 1 mg/kg s.c. daily, day 7) was 94.5983 %, relative to day 0. The “body weight, average” value ([2]; mock infected hamsters, 1 mg/kg s.c. daily, day 1) was 97.4975 %, relative to day 0, the “body weight, average” value ([2]; mock infected hamsters, 1 mg/kg s.c. daily, day 2) was 98.3232 %, relative to day 0 and the “body weight, average” value ([2]; mock infected hamsters, 1 mg/kg s.c. daily, day 3) was 98.7966 %, relative to day 0. The “body weight, average” value ([2]; mock infected hamsters, 1 mg/kg s.c. daily, day 4) was 99.2826 %, relative to day 0, the “body weight, average” value ([2]; mock infected hamsters, 1 mg/kg s.c. daily, day 5) was 100.017 %, relative to day 0 and the “body weight, average” value ([2]; mock infected hamsters, 1 mg/kg s.c. daily, day 6) was 100.959 %, relative to day 0. The “body weight, average” value ([2]; mock infected hamsters, 1 mg/kg s.c. daily, day 7) was 101.896 %, relative to day 0.
